# Assay results from US9814703B2, “Methods for treating cancer by activation of BMP signaling” (The Board of Trustees of the Leland Stanford Junior …, priority 2013, dated 2017).
# Columns and labels:
# [1] = tested on: primary human bladder urothelial cells; assay: BMP pathway activation in cultured urothelial cells, BMP target gene expression by quantitative RT-PCR; assay type: cell-based; conditions: 20 ng/ml FK506, 12 hours
# Description: As Bmp4 and Bmp5 secreted from stromal cells have the potential to act on urothelium, we tested the ability of cultured urothelial cells to respond to BMP pathway activation. For this purpose we selected FK506, an FDA-approved drug recently shown to activate BMP pathway at concentrations below those required for its immunosuppressant effects^27. […] Loss of Shh expression in human invasive carcinomas, as noted previously (FIG. 1A), would be expected to disrupt this signal feedback; this expectation was confirmed by a dramatic reduction of BMP4 and BMP5 expression in human invasive urothelial carcinoma as compared to benign bladder (FIG. 4D).
# For BBN-induced bladder carcinogenesis, a 0.1% concentration of BBN was provided to mice ad libitum for 4-6 months. […] Quantitative RT-PCR was used for measurement of RNA levels in samples isolated from the human and mouse bladder samples. […]
# (§1) Bladder samples were snap frozen in liquid nitrogen, homogenized with a mortar and pestle, and RNA extracted with the RNeasy Plus Mini kit (Qiagen). For quantitative RT-PCR of mRNA transcripts, first-strand cDNA was made using the SuperScript III First-Strand Synthesis SuperMix (Invitrogen 18080-400). Quantitative RT-PCR was performed using iQ SYBR Green Supermix (Bio-Rad 170-8880) and the Bio-Rad iCycler. […]
# [2] = tested on: BBN-induced bladder cancer; assay: BBN-induced bladder carcinogenesis in mice, progression to invasive carcinoma (histopathology); assay type: in vivo
# Description: To investigate the role of Bmp pathway activity in bladder tumor progression and to test the possibility that Bmp pathway activation might stimulate urothelial differentiation, which in turn might impede tumor progression, we exposed mice to BBN for 4 months, then initiated treatment with FK506 for another month while also continuing exposure to BBN (FIG. 5A). We have previously noted that mice exposed to BBN for 4 months develop pre-malignant lesions indistinguishable from human carcinoma-in-situ but not invasive carcinoma, which requires further BBN exposure^6.
# (§2) For BBN-induced bladder carcinogenesis, a 0.1% concentration of BBN was provided to mice ad libitum for 4-6 months. For Smo deletion experiments, a transgene expressing tamoxifen-activated Cre was used to selectively inactivate a conditional allele of Smo. To activate the BMP pathway, Alzet osmotic pumps were implanted subcutaneously to administer FK506 to mice exposed to BBN. Quantitative RT-PCR was used for measurement of RNA levels in samples isolated from the human and mouse bladder samples. […]
# A 0.1% concentration of BBN (TCI America) was dissolved in drinking water, and BBN-containing water was provided to mice ad libitum for 4-6 months in a dark bottle. […] Bladders were collected and analyzed after 4 to 6 months of BBN administration. […]
# [3] = tested on: primary human bladder stromal cells; assay: Hh pathway stimulation of primary human bladder stromal cells, gene expression by quantitative RT-PCR; assay type: cell-based; conditions: 24 hours; for Expression of BMP4 increased as compared to the unstimulated control / Expression of BMP5 increased as compared to the unstimulated control / Expression of GLI1 increased as compared to the unstimulated control: serum-starved, SAG 200 nM or Shh conditioned medium (ShhN)
# Description: (§3) To determine whether Hh signaling regulates expression of BMP4 and BMP5 in human bladder, we first examined the expression of Hh pathway components in primary human bladder fibroblasts and epithelial cells. […] To evaluate response to the Hh signal, we treated cultured human bladder stromal and urothelial cells with ShhN protein or with the chemical pathway agonist SAG^24. […] Concomitant with the increase in GLI1 mRNA upon stimulation of the cultured human bladder stromal fibroblasts, we noted an increase in levels of BMP4 and BMP5 transcripts (FIG. 4B).
# For BBN-induced bladder carcinogenesis, a 0.1% concentration of BBN was provided to mice ad libitum for 4-6 months. For Smo deletion experiments, a transgene expressing tamoxifen-activated Cre was used to selectively inactivate a conditional allele of Smo. To activate the BMP pathway, Alzet osmotic pumps were implanted subcutaneously to administer FK506 to mice exposed to BBN. Quantitative RT-PCR was used for measurement of RNA levels in samples isolated from the human and mouse bladder samples. For in vitro cultures, primary human bladder urothelial and stromal cells were treated with FK506 for 12 hours, or serum-starved and treated with SAG or Shh conditioned medium with or without cyclopamine for 24 hours prior to gene expression analyses.
# Bladder samples were snap frozen in liquid nitrogen, homogenized with a mortar and pestle, and RNA extracted with the RNeasy Plus Mini kit (Qiagen). For quantitative RT-PCR of mRNA transcripts, first-strand cDNA was made using the SuperScript III First-Strand Synthesis SuperMix (Invitrogen 18080-400). Quantitative RT-PCR was performed using iQ SYBR Green Supermix (Bio-Rad 170-8880) and the Bio-Rad iCycler.
# Primary human bladder urothelial cells (ScienCell 4320) and bladder stromal fibroblasts (ScienCell 4330) were cultured in Urothelial Cell Medium (ScienCell 4321) and Fibroblast Medium (ScienCell 2301) respectively to sub-confluency. Cells were then starved for 12 hours, followed by addition of Shh conditioned medium in the absence or in the presence of cyclopamine (3 uM, Toronto Research Chemicals), or treated with the Shh pathway agonist SAG (200 nM, Millipore) for 24 hours. In separate experiments, cells were treated with 20 ng/ml FK506 (Cayman Chemical) or DMSO for 12 hours. Following treatment, RNA was extracted using the Trizol reagent.
# [4] = tested on: primary human bladder urothelial cells; assay: Hh pathway stimulation of primary human bladder urothelial cells, gene expression by quantitative RT-PCR; assay type: cell-based; conditions: SAG 200 nM or ShhN, 24 hours
# Description: as §3
# as §2, with “To activate the BMP pathway, Alzet osmotic pumps were implanted subcutaneously to administer FK506 to mice exposed to BBN.” left out
# as §1
# [5] = cyclopamine 3 uM added to Hh pathway stimulation
Molecule,Expression of BMP target gene CDKN1B increased as compared to the DMSO control [1] [fold],Expression of BMP target gene ID4 increased as compared to the DMSO control [1] [fold],"Progression of bladder cancer in mice ([2]; low-dose FK506, murine BBN model)","Development of invasive carcinoma in treated mice ([2]; mice exposed to BBN 5 months, FK506 0.05 mg/kg/day by subcutaneous osmotic pump during the final month, cohort of 10 mice (control 7 of 9 invasive))",Expression of BMP4 increased as compared to the unstimulated control [3] [fold],Expression of BMP5 increased as compared to the unstimulated control [3] [fold],Expression of GLI1 increased as compared to the unstimulated control [3] [fold],Response of urothelial cells to Hh pathway stimulation (GLI1 expression) [4],"Effect of added cyclopamine on the stimulated increase of BMP4 and BMP5 expression [3, 5]","Effect of added cyclopamine on the stimulated increase of GLI1 expression [3, 5]"
C=CC[C@@H]1/C=C(\C)C[C@H](C)C[C@H](OC)[C@H]2O[C@@](O)(C(=O)C(=O)N3CCCC[C@H]3C(=O)O[C@H](/C(C)=C/[C@@H]3CC[C@@H](O)[C@H](OC)C3)[C@H](C)[C@@H](O)CC1=O)[C@H](C)C[C@@H]2OC [FK506],2.4,1.6,halts progression,no invasive carcinoma was observed,,,,,,
CNC1CCC(N(Cc2cccc(-c3ccncc3)c2)C(=O)c2sc3ccccc3c2Cl)CC1 (centres unmarked) [SAG],,,,,5.8,2,5.4,did not respond,,
CC1=C2C[C@H]3[C@@H](CC=C4C[C@@H](O)CC[C@@]43C)[C@@H]2CC[C@]12O[C@@H]1C[C@H](C)CN[C@H]1[C@H]2C [cyclopamine],,,,,,,,,reversed,reversed
"ShhN: ShhN protein, Hh ligand, applied as Shh conditioned medium",,,,,3.9,1.6,1.6,did not respond,,
